# Values of other authors in US8293789B2, “Method of preparing a latanoprost opthalmic solution and the resulting solution” (priority 2004, dated 2012).
# Columns and labels:
# [1] = test system: patients with open angle glaucoma or ocular hypertension; conditions: for circadian / nocturnal reduction of intraocular pressure: day versus night
# [2] = not given; remark: listed apart in the source
time to peak concentration in the aqueous humor (after local administration) [h],"plasmatic mid life (in humans, sentence follows statements on latanoprost acid) [min]","time to maximum concentration in the aqueous humor (studies on humans, following administration)","solubility in organic solvents ([2]; acetone, ethanol, ethyl acetate, isopropanol, methanol and octanol)",solubility in acetonitrile ([2]; acetonitrile),solubility in water ([2]; water),SMILES,circadian / nocturnal reduction of intraocular pressure [1],"effectiveness of one sole daily application versus double daily application of other glaucoma agents ([1]; latanoprost 0.005%, patients with open angle glaucoma or ocular hypertension)","patients with a reduction in the intraocular pressure of at least 30% ([1]; patients treated with latanoprost, after 6 months of treatment) [%]","effectiveness as hypotensive agent compared with unoprostone ([1]; patients, versus unoprostone)"
–,–,–,–,–,–,CCN[C@H]1C[C@H](C)S(=O)(=O)c2sc(S(N)(=O)=O)cc21 [Dorzolamide],less effective than latanoprost,–,–,–
2,17,approximately two,freely soluble,highly soluble,practically insoluble,"CC(C)OC(=O)CCC/C=C\C[C@@H]1[C@@H](CC[C@@H](O)CCc2ccccc2)[C@H](O)C[C@@H]1O [latanoprost, isopropilic ester of the prostaglandin F2α 17-phenyl-13,14dihydro]",more uniform circadian reduction,at least as effective,52,better results
–,–,–,–,–,–,CC(C)(C)NC[C@H](O)COc1nsnc1N1CCOCC1 [timolol],less effective during the night,–,–,–
